Measured values published in ChEMBL document CHEMBL1201862, “PubChem BioAssay data set” (2004).
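Growth conditions: 96-well plates. Treatment: test compound, 48 hours, 5 concentrations. Analysis: linear interpolation between bracketing concentrations; unreached endpoints set to highest concentration. GI50 = concentration required for 50% inhibition of growth.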 Active and inactive are the calls of the source. No stated cut-off is given here; in the data, active = GI50 up to about 1.1 µM and inactive = higher.

What was measured:
Assay in all cases: DTP human tumour cell line panel, 48 h
KM12 = tested on: KM12
MOLT-4 = tested on: MOLT-4
SF-268 = tested on: SF-268
786-0 = tested on: 786-0
SF-295 = tested on: SF-295
UACC-62 = tested on: UACC-62
SNB-75 = tested on: SNB-75
SK-MEL-2 = tested on: SK-MEL-2
Malme-3M = tested on: Malme-3M
ACHN = tested on: ACHN
IGROV-1 = tested on: IGROV-1
Hs-578T = tested on: Hs-578T
SK-MEL-5 = tested on: SK-MEL-5
MDA-MB-435 = tested on: MDA-MB-435
DU-145 = tested on: DU-145
SK-OV-3 = tested on: SK-OV-3
EKVX = tested on: EKVX
HL-60 = tested on: HL-60
MDA-MB-231 = tested on: MDA-MB-231
OVCAR-4 = tested on: OVCAR-4

**Q.** Which results are given for CNC1C(O)C(OC2C(N)CC(N)C(OC3OC(CN)=CCC3N)C2O)OCC1(C)O (stereo not given)?
**A.** GI50 (KM12): > 100 µM (inactive); GI50 (MOLT-4): > 100 µM (inactive); GI50 (SF-268): > 100 µM (inactive); GI50 (786-0): > 100 µM (inactive); GI50 (SF-295): > 100 µM (inactive); GI50 (UACC-62): > 100 µM (inactive); GI50 (SNB-75): > 100 µM (inactive); GI50 (SK-MEL-2): > 100 µM (inactive); GI50 (Malme-3M): > 100 µM (inactive); GI50 (ACHN): > 100 µM (inactive); GI50 (IGROV-1): > 100 µM (inactive); GI50 (Hs-578T): > 100 µM (inactive); GI50 (SK-MEL-5): > 100 µM (inactive); GI50 (MDA-MB-435): > 100 µM (inactive); GI50 (DU-145): > 100 µM (inactive); GI50 (SK-OV-3): > 100 µM (inactive); GI50 (EKVX): > 100 µM (inactive); GI50 (HL-60): > 100 µM (inactive); GI50 (MDA-MB-231): > 100 µM (inactive)

**Q.** What does the source list for C=C=C(CC1CCCCC1=O)S(=O)(=O)c1ccccc1 (stereo not given)?
**A.** GI50 (MOLT-4): 0.0489 µM (active); GI50 (SF-268): > 10 µM (inactive); GI50 (786-0): 4.2 µM (inactive); GI50 (SF-295): > 10 µM (inactive); GI50 (UACC-62): > 5.12 µM (inactive); GI50 (SNB-75): > 6.04 µM (inactive); GI50 (SK-MEL-2): > 10 µM (inactive); GI50 (Malme-3M): > 10 µM (inactive); GI50 (ACHN): > 10 µM (inactive); GI50 (IGROV-1): > 10 µM (inactive); GI50 (Hs-578T): > 10 µM (inactive); GI50 (SK-MEL-5): > 4.8 µM (inactive); GI50 (MDA-MB-435): > 7.23 µM (inactive); GI50 (OVCAR-4): > 10 µM (inactive); GI50 (DU-145): > 7.13 µM (inactive); GI50 (SK-OV-3): > 10 µM (inactive); GI50 (EKVX): > 10 µM (inactive); GI50 (HL-60): 1.52 µM (inactive); GI50 (MDA-MB-231): > 10 µM (inactive)

**Q.** Which results are given for Nc1nc(Nc2ccc(Cl)cc2)sc1C(=O)c1c[nH]c2ccccc12?
**A.** GI50 (KM12): 14 µM (inactive); GI50 (SF-268): 21.4 µM (inactive); GI50 (786-0): 4.66 µM (inactive); GI50 (UACC-62): 14.9 µM (inactive); GI50 (SNB-75): 5.66 µM (inactive); GI50 (SK-MEL-2): 14.6 µM (inactive); GI50 (Malme-3M): 16.4 µM (inactive); GI50 (ACHN): 12.4 µM (inactive); GI50 (IGROV-1): 17.3 µM (inactive); GI50 (Hs-578T): 21.6 µM (inactive); GI50 (SK-MEL-5): 12 µM (inactive); GI50 (MDA-MB-435): 12.9 µM (inactive); GI50 (OVCAR-4): 14.7 µM (inactive); GI50 (DU-145): 14.2 µM (inactive); GI50 (SK-OV-3): 21.4 µM (inactive); GI50 (HL-60): 15.7 µM (inactive); GI50 (MDA-MB-231): 17.9 µM (inactive)

**Q.** Cc1cc(N)ccc1/N=N\c1ccc(S(=O)(=O)CCOS(=O)(=O)O)cc1 was tested. Which GI50 (KM12) did it give?
**A.** 2.87 µM (inactive)

**Q.** And the GI50 (MOLT-4)?
**A.** 0.23 µM (active)

**Q.** What about the GI50 (SF-268) of the same compound?
**A.** 6.11 µM (inactive)

**Q.** What about the GI50 (786-0) of the same compound?
**A.** 0.414 µM (active)

**Q.** And the GI50 (SF-295)?
**A.** 2.63 µM (inactive)

**Q.** What about the GI50 (UACC-62) of the same compound?
**A.** 1.57 µM (inactive)

**Q.** And the GI50 (SNB-75)?
**A.** 1.04 µM (active)

**Q.** And the GI50 (SK-MEL-2)?
**A.** 0.605 µM (active)

**Q.** And the GI50 (Malme-3M)?
**A.** 1.99 µM (inactive)

**Q.** And the GI50 (ACHN)?
**A.** 3.24 µM (inactive)

**Q.** And the GI50 (IGROV-1)?
**A.** 0.713 µM (active)

**Q.** What about the GI50 (Hs-578T) of the same compound?
**A.** 5.08 µM (inactive)

**Q.** And the GI50 (SK-MEL-5)?
**A.** 0.287 µM (active)

**Q.** And the GI50 (MDA-MB-435)?
**A.** 0.216 µM (active)

**Q.** And the GI50 (OVCAR-4)?
**A.** 10.5 µM (inactive)

**Q.** And the GI50 (DU-145)?
**A.** 26 µM (inactive)

**Q.** What about the GI50 (EKVX) of the same compound?
**A.** 27 µM (inactive)

**Q.** And the GI50 (HL-60)?
**A.** 0.948 µM (active)

**Q.** What about the GI50 (MDA-MB-231) of the same compound?
**A.** 0.215 µM (active)

**Q.** What does the source list for CCOC(=O)c1c(C)noc1/N=N/N(CCO)CCO?
**A.** GI50 (KM12): 36.6 µM (inactive); GI50 (MOLT-4): 21 µM (inactive); GI50 (SF-268): 54.3 µM (inactive); GI50 (786-0): 38.2 µM (inactive); GI50 (SF-295): 23.7 µM (inactive); GI50 (UACC-62): 23.9 µM (inactive); GI50 (SNB-75): 10.2 µM (inactive); GI50 (Malme-3M): 45.1 µM (inactive); GI50 (ACHN): 29 µM (inactive); GI50 (IGROV-1): 36.6 µM (inactive); GI50 (Hs-578T): 63.4 µM (inactive); GI50 (SK-MEL-5): 15.7 µM (inactive); GI50 (MDA-MB-435): 34 µM (inactive); GI50 (OVCAR-4): 30.2 µM (inactive); GI50 (DU-145): 49.7 µM (inactive); GI50 (SK-OV-3): 57.4 µM (inactive); GI50 (EKVX): 39.9 µM (inactive); GI50 (HL-60): 26.1 µM (inactive); GI50 (MDA-MB-231): 38.9 µM (inactive)

**Q.** Which results are given for CCNC(=O)OCC1C2=C(C(=O)C(C)=C(N)C2=O)N2CC3C(N3C)C12OC (stereo not given)?
**A.** GI50 (MOLT-4): 3.28 µM (inactive); GI50 (SF-268): 15.7 µM (inactive); GI50 (786-0): 10.1 µM (inactive); GI50 (SF-295): 7.76 µM (inactive); GI50 (UACC-62): 11.9 µM (inactive); GI50 (SNB-75): 21.7 µM (inactive); GI50 (SK-MEL-2): 30.3 µM (inactive); GI50 (Malme-3M): 17.6 µM (inactive); GI50 (ACHN): 4.22 µM (inactive); GI50 (IGROV-1): 18.5 µM (inactive); GI50 (Hs-578T): > 100 µM (inactive); GI50 (SK-MEL-5): 12.8 µM (inactive); GI50 (MDA-MB-435): 75.7 µM (inactive); GI50 (OVCAR-4): 26.6 µM (inactive); GI50 (DU-145): 4.1 µM (inactive); GI50 (SK-OV-3): 27.4 µM (inactive); GI50 (EKVX): > 94.2 µM (inactive); GI50 (HL-60): 3.94 µM (inactive); GI50 (MDA-MB-231): > 100 µM (inactive)

**Q.** For Cc1c2ccccc2cc2cccc[n+]12, which GI50 (KM12) is on record?
**A.** 6.52 µM (inactive)

**Q.** What about the GI50 (MOLT-4) of the same compound?
**A.** 13 µM (inactive)

**Q.** What about the GI50 (SF-268) of the same compound?
**A.** 10.4 µM (inactive)

**Q.** What about the GI50 (786-0) of the same compound?
**A.** 61.8 µM (inactive)

**Q.** And the GI50 (SF-295)?
**A.** 34.8 µM (inactive)

**Q.** What about the GI50 (UACC-62) of the same compound?
**A.** 41.7 µM (inactive)

**Q.** What about the GI50 (SNB-75) of the same compound?
**A.** 21.9 µM (inactive)

**Q.** What about the GI50 (SK-MEL-2) of the same compound?
**A.** 41.3 µM (inactive)

**Q.** What about the GI50 (Malme-3M) of the same compound?
**A.** 11.3 µM (inactive)

**Q.** And the GI50 (ACHN)?
**A.** 62.1 µM (inactive)

**Q.** And the GI50 (IGROV-1)?
**A.** 26.1 µM (inactive)

**Q.** What about the GI50 (Hs-578T) of the same compound?
**A.** 25.6 µM (inactive)

**Q.** What about the GI50 (SK-MEL-5) of the same compound?
**A.** 27.4 µM (inactive)

**Q.** What about the GI50 (MDA-MB-435) of the same compound?
**A.** 36 µM (inactive)

**Q.** And the GI50 (DU-145)?
**A.** 61.4 µM (inactive)

**Q.** What about the GI50 (EKVX) of the same compound?
**A.** 4.72 µM (inactive)

**Q.** What about the GI50 (HL-60) of the same compound?
**A.** 29.3 µM (inactive)

**Q.** What about the GI50 (MDA-MB-231) of the same compound?
**A.** 37.7 µM (inactive)
